Reference: ChEMBL document CHEMBL1154407, “Tick acquisition of Ehrlichia canis from dogs treated with doxycycline hyclate” (Antimicrob Agents Chemother, 2007)
Calls of active or inactive are those of the source.

Experiments:
Format in all cases: functional, organism-based
Set-up in all cases: dose 10 mg/kg
Ehrlichia canis [1] = experiment: Antimicrobial activity against Ehrlichia canis infected in Beagle dog AHK at 10 mg/kg, po once daily for 14 days measured 55 days post-tick attachment after drug administration by PCR
Ehrlichia canis [2] = experiment: Antimicrobial activity against Ehrlichia canis infected in Beagle dog AHG at 10 mg/kg, po once daily for 14 days measured 76 days post-tick attachment after drug administration by PCR
Ehrlichia canis [3] = experiment: Antimicrobial activity against Ehrlichia canis infected in Beagle dog AIP at 10 mg/kg, po once daily for 14 days measured 83 days post-tick attachment after drug administration by PCR
Ehrlichia canis [4] = experiment: Antimicrobial activity against Ehrlichia canis infected in Beagle dog AUF at 10 mg/kg, po once daily for 14 days measured 104 days post-tick attachment after drug administration by PCR
Ehrlichia canis [5] = experiment: Antimicrobial activity against Ehrlichia canis infected in Beagle dog AIP with brown dog tick assessed as infected ticks at 10 mg/kg, po once daily for 14 days measured 7 days post-tick attachment after drug administration by PCR

Measured: Activity

C[C@H]1c2cccc(O)c2C(=O)C2=C(O)[C@]3(O)C(=O)C(C(N)=O)=C(O)[C@@H](N(C)C)[C@@H]3[C@@H](O)[C@@H]21
inactive: Ehrlichia canis [1] | Ehrlichia canis [2] | Ehrlichia canis [3] | Ehrlichia canis [4] | Ehrlichia canis [5]
